Series [1] can be described thus: Visual observation of appearance (solubility, miscibility) in solvents, solvent blends and gel bases. Type of series: physicochemical. How it is done:
Conductivity in mixtures of a solvent in combination with choline and geranic acid were done separately.
Propylene glycol: Samples were made by first starting with 5 grams of each raw material; geranic acid first then repeated with choline (bicarbonate). In summary 1-3 grams of propylene glycol was added to the raw material being tested and mixed. A visual observation was made along with a conductivity measurement.
Ethanol: Samples were made by first starting with 5 grams of each raw material; geranic acid first then repeated with choline (bicarbonate). In summary 1-3 grams of propylene glycol was added to the raw material being tested and mixed. A visual observation was made along with a conductivity measurement.
Diisopropyl adipate: Samples were made by first starting with 5 grams of each raw material; geranic acid first then repeated with choline (bicarbonate). In summary, 1-3 grams of […] was added to the raw material being tested and mixed. A visual observation was made along with a conductivity measurement.
(§1) The solvents investigated included: water, propylene glycol, glycerin, PEG400, ethanol, diisopropyl adipate, mineral oil, propylene glycol/ethanol/water, and glycerin/PEGG400/water. […] Observations were taken at each concentration. Conductivity measurements were taken at each titrated point for information only at this stage. Scales on subsequent graphs are appropriate for each solvent's values.
No conductivity measurements were taken.
(§2) A visual observation was made along with a conductivity measurement. The process was continued until ˜25 grams of product was reached. The resulting product was stored for later evaluation.
as §2, §2, §2, §2, §2
1-3 grams of water was added and mixed. A visual observation was made along with a conductivity measurement. The process was continued until ˜16 grams of product was reached. The resulting product was stored for later evaluation.
1-3 grams of water was added and mixed. A visual observation was made along with a conductivity measurement. The process was continued until ˜20 grams of product was reached. The resulting product was stored for later evaluation. […]
A similar experiment with the propylene glycol formulation was performed. The results are shown in Table 23, Table 24, and FIG. 28.
(§3) The conductivity is shown in FIG. 32 and the appearance is described in Table 28.

A short description of series [2]: Conductivity measurement in solvents, solvent blends and gel bases. Type of series: physicochemical. How it is done:
Conductivity in mixtures of a solvent in combination with choline and geranic acid were done separately. […]
Ethanol: Samples were made by first starting with 5 grams of each raw material; geranic acid first then repeated with choline (bicarbonate). In summary 1-3 grams of […] was added to the raw material being tested and mixed. A visual observation was made along with a conductivity measurement. […]
as §1, §2, §2, §2, §2, §2
A visual observation was made along with a conductivity measurement. The process was continued until ˜25 grams of product was reached. The resulting product was stored for later evaluation. […]
as §3

Where [3] appears, read: 19% geranic acid, 81% ethanol 200 proof.
[4] abbreviates: 20% geranic acid, 80% ethanol 200 proof.
Setting [5] is: 22% geranic acid, 78% ethanol 200 proof.
[6] abbreviates: 24% geranic acid, 76% ethanol 200 proof.
Setting [7] is: 26% geranic acid, 74% ethanol 200 proof.
Setting [8] is: 29% geranic acid, 71% ethanol 200 proof.
[9] abbreviates: 33% geranic acid, 67% ethanol 200 proof.
[10] abbreviates: 36% geranic acid, 64% propylene glycol.
The mark [11] stands for this setting: 38% geranic acid, 62% ethanol 200 proof.
Where [12] appears, read: 45% geranic acid, 55% ethanol 200 proof.
Where [13] appears, read: 56% geranic acid, 44% ethanol 200 proof.
The mark [14] stands for this setting: 56% geranic acid, 44% propylene glycol.
Setting [15] is: 71% geranic acid, 29% ethanol 200 proof.
The mark [16] stands for this setting: 71% geranic acid, 29% propylene glycol.
Setting [17] is: 71.43% geranic acid, 28.57% diisopropyl adipate.
[18] abbreviates: 83% geranic acid, 17% ethanol 200 proof.
Setting [19] is: 83% geranic acid, 17% propylene glycol.
[20] abbreviates: 83.33% geranic acid, 16.67% diisopropyl adipate.
Where [21] appears, read: 100.00% geranic acid, 0.00% diisopropyl adipate.
The mark [22] stands for this setting: 100% geranic acid, 0% ethanol 200 proof.
The mark [23] stands for this setting: 100% geranic acid, 0% propylene glycol.

Turning to `CC(C)=CCC/C(C)=C/C(=O)O` [Geranic Acid, 3,7-dimethyl-2,6-octadienoic acid], the Appearance entry in series [1] (setting [3]), in series [1] (setting [4]), in series [1] (setting [5]), in series [1] (setting [6]), in series [1] (setting [7]) and in series [1] (setting [8]) was “Clear solution” each time. The Appearance entry in series [1] (setting [9]), in series [1] (setting [10]), in series [1] (setting [11]), in series [1] (setting [12]), in series [1] (setting [13]) and in series [1] (setting [14]) was “Clear solution” each time. The Appearance entry in series [1] (setting [15]), in series [1] (setting [16]), in series [1] (setting [17]), in series [1] (setting [18]), in series [1] (setting [19]) and in series [1] (setting [20]) was “Clear solution” in each case. In addition, the Appearance entry in series [1] (setting [21]), in series [1] (setting [22]) and in series [1] (setting [23]) was “Clear solution” each time. In addition, the Conductivity in series [2] (setting [3]) was determined as 0.00064 mS/cm; in series [2] (setting [4]) it was 0.00064 mS/cm; in series [2] (setting [5]), 0.00066 mS/cm; in series [2] (setting [6]), 0.00068 mS/cm; in series [2] (setting [7]), 0.00072 mS/cm; in series [2] (setting [8]), 0.00074 mS/cm. The Conductivity came out at 0.00083 mS/cm in series [2] (setting [9]); 0.00009 mS/cm in series [2] (setting [10]); 0.00061 mS/cm in series [2] (setting [11]); 0.00048 mS/cm in series [2] (setting [12]); 0.00022 mS/cm in series [2] (setting [13]); 0.00008 mS/cm in series [2] (setting [14]). The Conductivity in series [2] (setting [15]) was found to be 0.00003 mS/cm; in series [2] (setting [16]) it was 0.00008 mS/cm; in series [2] (setting [17]), 0 mS/cm; in series [2] (setting [18]) it was 0.00001 mS/cm; in series [2] (setting [19]) it was 0.00000 mS/cm; in series [2] (setting [20]), 0 mS/cm. In addition, the Conductivity in series [2] (setting [21]) is on record as 0 mS/cm; in series [2] (setting [22]), 0.00000 mS/cm; in series [2] (setting [23]), 0.00000 mS/cm. In addition, the “contribution to the overall conductivity” value in series [2] (mixtures with solvent) is “effectively zero”.
Consider `C[N+](C)(C)CCO` [Choline Bicarbonate, choline bicarbonate], for which the “miscibility with diisopropyl adipate” value in series [1] was “not miscible”.

(Values after patent US20210113696A1, “IONIC LIQUID COMPOSITIONS FOR TREATMENT OF ROSACEA” (CAGE BIO INC., priority 2018, published 2021).)
